From ChEMBL document CHEMBL1201862, “PubChem BioAssay data set” (2004)
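96-well plates; 48 h exposure; 5 concentrations. Endpoints by linear interpolation between flanking doses. Not reached: highest tested concentration assigned. Here, GI50 denotes the concentration required for 50% inhibition of growth.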 Active and inactive are the calls of the source. No stated cut-off is given here; in the data, active = GI50 up to about 1.1 µM and inactive = higher.

Legend:
Test in all cases: DTP human tumour cell line panel, 48 h
SN12C = tested on: SN12C
PC-3 = tested on: PC-3
OVCAR-8 = tested on: OVCAR-8
M14 = tested on: M14
MDA-MB-231 = tested on: MDA-MB-231
NCI-H226 = tested on: NCI-H226
SF-268 = tested on: SF-268
HL-60 = tested on: HL-60
MDA-N = tested on: MDA-N
MCF7 = tested on: MCF7
SF-539 = tested on: SF-539
DU-145 = tested on: DU-145
RXF 393 = tested on: RXF 393
HOP-62 = tested on: HOP-62
COLO 205 = tested on: COLO 205
MDA-MB-435 = tested on: MDA-MB-435
BT-549 = tested on: BT-549
UO-31 = tested on: UO-31
HCC 2998 = tested on: HCC 2998
Malme-3M = tested on: Malme-3M

| Structure (SMILES) | GI50 (SN12C) | GI50 (PC-3) | GI50 (OVCAR-8) | GI50 (M14) | GI50 (MDA-MB-231) | GI50 (NCI-H226) | GI50 (SF-268) | GI50 (HL-60) | GI50 (MDA-N) | GI50 (MCF7) | GI50 (SF-539) | GI50 (DU-145) | GI50 (RXF 393) | GI50 (HOP-62) | GI50 (COLO 205) | GI50 (MDA-MB-435) | GI50 (BT-549) | GI50 (UO-31) | GI50 (HCC 2998) | GI50 (Malme-3M) |
| --- | --- | --- | --- | --- | --- | --- | --- | --- | --- | --- | --- | --- | --- | --- | --- | --- | --- | --- | --- | --- |
| O=[N+]([O-])c1ccc(Oc2c(Cl)cc(S(=O)(=O)N/C(=N\O)Nc3ccc(Cl)cc3)cc2Cl)c(Cl)c1 | 14.3 µM (inactive) | 13.3 µM (inactive) | 22.8 µM (inactive) | 16.5 µM (inactive) | 17 µM (inactive) | 25.3 µM (inactive) | 13.6 µM (inactive) | 26.2 µM (inactive) | 15.6 µM (inactive) | 17.2 µM (inactive) | 20.3 µM (inactive) | 13.6 µM (inactive) | 13.2 µM (inactive) | 16.5 µM (inactive) | 18.8 µM (inactive) | 16.6 µM (inactive) | 14.8 µM (inactive) | 13.7 µM (inactive) | 16 µM (inactive) | 14.6 µM (inactive) |
| CC1=C/C(=C(/c2ccc(O)c(C)c2)c2ccccc2C(=O)O)C=CC1=O | 19.6 µM (inactive) | 19.6 µM (inactive) | 20 µM (inactive) | 18.3 µM (inactive) | 19.9 µM (inactive) | 23.1 µM (inactive) | 25.2 µM (inactive) | 20.8 µM (inactive) | 18.7 µM (inactive) | 19.7 µM (inactive) | 19 µM (inactive) | 18.1 µM (inactive) | 17.4 µM (inactive) | 19 µM (inactive) | 19.9 µM (inactive) | 17.6 µM (inactive) | 21.1 µM (inactive) | 18.8 µM (inactive) | 19.1 µM (inactive) | 24.9 µM (inactive) |
| CCOC(=O)/C=C(/C(=O)OCC)n1ccc(=O)n(/C(=C/C(=O)OCC)C(=O)OCC)c1=O | 4.43 µM (inactive) | 15 µM (inactive) | 8.79 µM (inactive) | 4.98 µM (inactive) | 16.6 µM (inactive) | 8.07 µM (inactive) | 18.6 µM (inactive) | 0.859 µM (active) | 13.5 µM (inactive) | 6.4 µM (inactive) | 18.1 µM (inactive) | 18.6 µM (inactive) | 3.68 µM (inactive) | 25.9 µM (inactive) | 1.95 µM (inactive) | 8.34 µM (inactive) | 15.3 µM (inactive) | 15.5 µM (inactive) | 18.4 µM (inactive) | 2.79 µM (inactive) |
| c1cc(-c2ccc(-c3nc4ccc(C5=NCCN5)cc4s3)s2)ccc1C1=NCCN1 | 0.172 µM (active) | 0.805 µM (active) | 0.296 µM (active) | 0.912 µM (active) | 0.234 µM (active) | 0.308 µM (active) | 0.214 µM (active) | 0.394 µM (active) | 0.723 µM (active) | 0.0372 µM (active) | 0.296 µM (active) | 0.19 µM (active) | 0.152 µM (active) | 0.187 µM (active) | 1.11 µM (active) | 0.841 µM (active) | 1.23 µM (inactive) | 1.02 µM (active) | 0.0292 µM (active) | 1.02 µM (active) |
| CN(C)CC(O)CNC(=O)Nc1ccccc1 (stereo not given) | > 100 µM (inactive) | > 100 µM (inactive) | > 100 µM (inactive) | > 100 µM (inactive) | > 100 µM (inactive) | > 100 µM (inactive) | > 100 µM (inactive) | > 100 µM (inactive) | > 100 µM (inactive) | > 100 µM (inactive) | > 100 µM (inactive) | > 100 µM (inactive) | > 100 µM (inactive) | > 100 µM (inactive) | > 100 µM (inactive) | > 100 µM (inactive) | > 100 µM (inactive) | > 100 µM (inactive) | > 100 µM (inactive) | > 100 µM (inactive) |
